{
  "source": "patent US20200215003A1",
  "about": "“PARENTERAL ADMINISTRATION OF TAPENTADOL” (GRÜNENTHAL GMBH, priority 2011, published 2020)",
  "key": {"[1]": {"test_system": "carrageenan induced acute inflammatory pain in rats", "assay": "carrageenan induced acute inflammatory pain (paw pressure test)", "format": "in vivo", "details": "for ED50: Rattus norvegicus, 0.25 h, acute pain, 15 min p. appl.; for time at which the peak effect was reached: p. appl., timepoint of first measurement", "source_text": "(§1) The weight ratios of the components (a) and (b) that will lead to a supra-additive effect (synergistic effect) of the inventive pharmaceutical composition may be determined via the paw pressure test of Randall and Selitto as described in Arch. Int. Pharmacodyn., 1957, 111: 409 to 419, which is a model for inflammatory pain. The respective part of the literature is hereby incorporated by reference and forms part of the present disclosure. Accordingly, the weight ratios of the components (a) and (b) that will lead to a supra-additive effect (synergistic effect) of the inventive pharmaceutical composition were determined in a model of acute pain (A) and a model of chronic pain (B).\nAcute inflammation was induced by injection of a 0.1 ml carrageenan solution (0.5% in distilled water) subcutaneously into the plantar surface of the right hind paw of the rat. The mechanical nociceptive threshold was measured using an Algesiometer (Ugo Basile, Italy). The device generates a mechanical force with a linear increase over time. The force was applied to the dorsal surface of the inflamed hind paw via a cone-shaped stylus with a rounded tip (3 mm^2). The nociceptive threshold (Tv) was defined as the force at which the rat vocalises (cut-off force 450 g). Compounds or vehicle were given 3 h after carrageenan injection. The mechanical nociceptive threshold was measured at different times after the drug or vehicle administration. The drug effects are expressed as percentages of the maximal possible effect (MPE) based on the following formula: %MPE=(Tv drug−Tv control)/(cut-off−Tv control)×100. The group size is n=12.\n(§2) The analysis of the results with respect to a supra-additive effect of the inventive pharmaceutical composition comprising the components (a) and (b) was carried out via statistical comparison of the theoretical additive ED50-value with the experimentally determined ED50-value of a so-called fixed ratio combination (isobolographic analysis according to Tallarida J T, Porreca F, and Cowan A. Statistical analysis of drug-drug and site-site interactions with isobolograms. Life Sci. 1989; 45: 947-961). The interactions studies presented herein were performed using equieffective doses of the two components, calculated from the ratio of the respective ED50 values of the components if administered alone."}, "[2]": {"test_system": "CFA induced chronic inflammatory pain in rats", "assay": "Complete Freund Adjuvant (CFA) induced chronic inflammatory pain (paw pressure test)", "format": "in vivo", "details": "for ED50: Rattus norvegicus, ip, 0.25 h, chronic pain, 15 min p. appl.; for time at which the peak effect was reached: p. appl., timepoint of first measurement", "source_text": "as §1\nChronic inflammation was induced by an intraplantar injection of 0.05 mL of a CFA solution (Mycobacterium tuberculosis, H37 Ra, Difco Laboratories, Detroit, Mich., U.S.A.; 1 mg/mL in mineral oil) into one hind paw. The mechanical nociceptive threshold is measured before (prevalue) and one day after CFA injection using an Algesiometer (Ugo Basile, Italy). The device generates a mechanical force with a linear increase over time. The force is applied to the dorsal surface of the inflamed rat hind paw via a cone-shaped stylus with a rounded tip (2 mm tip diameter). The nociceptive threshold is defined as the force (in grams) at which the rat vocalises (cut-off force 450 g). The mechanical nociceptive threshold is measured at different timepoints after the drug or vehicle administration. The antinociceptive and antihyperalgesic activity of the tested substance is expressed as percentages of the maximal possible effect (%MPE). The maximal possible effect is defined as the percentage of prevalue withdrawal treshold before CFA-injection. The group size is n=10.\nas §2"}, "[3]": {"details": "clinical studies, compared with morphine; cited from earlier work"}, "[4]": {"target": "recombinantly produced μ-opioid receptor (Homo sapiens, UniProt P35372)", "sequence (P35372 whole entry)": "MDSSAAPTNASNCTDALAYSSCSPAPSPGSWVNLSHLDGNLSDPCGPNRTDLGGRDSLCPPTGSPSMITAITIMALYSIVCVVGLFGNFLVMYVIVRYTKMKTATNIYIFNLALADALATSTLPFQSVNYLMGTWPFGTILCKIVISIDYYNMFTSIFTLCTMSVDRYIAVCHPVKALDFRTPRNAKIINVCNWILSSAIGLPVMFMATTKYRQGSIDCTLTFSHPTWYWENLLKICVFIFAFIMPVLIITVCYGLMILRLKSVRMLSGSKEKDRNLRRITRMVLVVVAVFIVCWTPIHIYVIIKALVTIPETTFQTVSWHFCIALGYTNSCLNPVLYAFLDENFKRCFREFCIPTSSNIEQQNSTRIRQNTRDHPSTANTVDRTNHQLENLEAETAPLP", "details": "compared with morphine; cited from earlier work"}, "[5]": {"test_system": "diabetic hyperalgesia in male C57/BL/6 mice", "assay": "streptozotocin-induced diabetic heat hyperalgesia, hot plate 50 °C", "format": "in vivo"}},
  "note": "Counter-ions that a name gives are not always drawn.",
  "data": [
    {"smiles": "CCN(CC)CC(=O)Nc1c(C)cccc1C", "note": "[Lidocaine, lidocaine hydrochloride]", "values": [
      {"measurement": "ED50", "setting": "[1]; ip", "result": 32.4, "unit": "mg/kg"},
      {"measurement": "time at which the peak effect was reached", "setting": "[1]", "result": 15, "unit": "min"},
      {"measurement": "ED50", "setting": "[2]", "result": 26.8, "unit": "mg/kg"},
      {"measurement": "time at which the peak effect was reached", "setting": "[2]", "result": 15, "unit": "min"}
    ]},
    {"smiles": "CC[C@@H](c1cccc(O)c1)[C@@H](C)CN(C)C", "note": "[tapentadol, (1 R,2R)-3-(3-dimethylamino-1-ethyl-2-methyl-propyl)-phenol]", "values": [
      {"measurement": "pain-alleviating action relative to morphine", "setting": "[3]", "result": "two to three times less"},
      {"measurement": "affinity to the recombinantly produced μ-opioid receptor relative to morphine", "setting": "[4]", "result": 18, "unit": "times less"},
      {"measurement": "combined intrathecal and intracerebroventricular ED 50 compared to theoretical additive effects", "setting": "[5]; FIG. 7, p <0.001", "result": "synergistically better"},
      {"measurement": "ED-50", "setting": "[5]; combination of intrathecal and intracerebroventricular administration, threshold values after 15 minutes", "result": "0.053 (0.032-0.074) mg/animal"},
      {"measurement": "ED-50", "setting": "[5]; intracerebroventricular administration, thermal hyperalgesia threshold values after 15 minutes", "result": "0.18 (0.14-0.22) mg/animal"},
      {"measurement": "inhibition of diabetic heat hyperalgesia", "setting": "[5]; intracerebroventricular, 0.1, 0.3 and 1.00 μg (FIGS. 3 and 4)", "result": "dose-dependent inhibition"},
      {"measurement": "ED-50", "setting": "[5]; intrathecal administration, thermal hyperalgesia threshold values after 15 minutes", "result": "0.42 (0.26-0.58) mg/animal"},
      {"measurement": "inhibition of diabetic heat hyperalgesia", "setting": "[5]; intrathecal plus intracerebroventricular, simultaneously (FIGS. 5 and 6)", "result": "dose-dependent inhibition"},
      {"measurement": "inhibition of diabetic heat hyperalgesia", "setting": "[5]; intrathecal, 0.316, 1.00 and 3.16 μg (FIGS. 1 and 2)", "result": "dose-dependent inhibition"},
      {"measurement": "ED50", "setting": "[1]; iv", "result": 1.75, "unit": "mg/kg"},
      {"measurement": "time at which the peak effect was reached", "setting": "[1]", "result": 15, "unit": "min"},
      {"measurement": "ED50", "setting": "[2]", "result": 6.34, "unit": "mg/kg"},
      {"measurement": "time at which the peak effect was reached", "setting": "[2]", "result": 15, "unit": "min"}
    ]}
  ]
}
